Experiments:
[1] = tested on: Leishmania major promastigotes (MHOM/UZ/91/PM2); experiment: Analysis of in vitro anti-leishmanial activity (growth inhibition of L. major/egfp promastigotes, fluorescence); type: cell-based; settings: 25° C., 72 h, inhibition with Amphotericin B (positive control) defined as 100%, FIG. 9
Excerpt: The compounds represented by formulas (1) to (6), which had been isolated by the procedure described above, were subjected to an analysis of the physiological activity under the conditions that are described below. Leishmania major promastigotes (MHOM/UZ/91/PM2) were selected as the Leishmania protozoa, and a L. major/egfp promastigotes in which a fluorescent protein egfp gene had been introduced was used. The compounds mentioned above were used as samples. Thus, the growth inhibition rate was determined under the following conditions.
Promastigotes of transgenic Leishmania major (MHOM/UZ/91/PM2) expressing enhanced green fluorescent protein (L. major/egfp) were maintained at 25° C. in 199 medium (NISSUI Pharmaceutical, Tokyo, Japan) containing 10% fetal bovine serum, 25 mM Hepes buffer (MP Biomedicals, LLC) and 10 μg/mL […] (SIGMA-ALDRICH, inc., USA). […] Thereafter, fluorescence signals of L. major/egfp promastigotes were measured with a fluorescence microplate reader (Fluoroscan Ascent FL, Dainippon. Pharmaceutical Co., Osaka, Japan) with excitation at 485 nm and emission at 538 nm. […]

L. major PM2 = experiment: Analysis of in vivo anti-leishmanial activity (leishmaniasis mouse model); settings: mice infected with 1×10^7 promastigotes of L. major PM2; 200 μg by peritoneal injection once a day for three weeks; size of ulcer, antibody titer in blood, protozoan DNA in blood (FIG. 10-12)
Experimental: In order to evaluate the in vivo anti-leishmanial activity of the compound represented by formula (3), which had been isolated by the procedure described above, a leishmaniasis mouse model was used to investigate the therapeutic effect. Six-week old mice ([…], male, 6 animals per group) were infected with 1×10^7 cells of cultured promastigotes of L. major PM2. From the day after the infection day, the compound represented by the formula (3) was administered to each specimen in an amount of 200 μg by peritoneal injection. The administration schedule was such that the compound was continuously administered once a day for three weeks. Further, as control, the same analysis was carried out also for a treatment group to which Amphotericin B was administered, and for a treatment group to which none was administered.

## CC(C)=CCC/C(C)=C/CC/C(C)=C/CC/C(C)=C/CC1(CC(=O)O)CC(=O)C=CC1=O (centres unmarked) [formula (3)]
[1]
  growth inhibition rate: almost equal to the growth inhibition rate of Amphotericin B
L. major PM2
  in vivo anti-leishmanial activity: equal to that of Amphotericin B
